Assay results from ChEMBL document CHEMBL1938330, “Inhibitory effects of polyphenols toward HCV from the mangrove plant Excoecaria agallocha L” (Bioorg Med Chem Lett, 2012).

Legend:
[1] = Inhibition of Hepatitic C virus NS3/4A protease by FRET assay; parameters: species or system Hepacivirus hominis
Hepatitis C virus = assay: Antiviral activity against Hepatitis C virus infected in human Huh7.5 cells assessed as inhibition of viral replication after 96 hrs by quantitative RT-PCR analysis; format: functional, organism-based, Hepacivirus hominis; conditions: Huh-7, 96 h
[2] = Selectivity index, ratio of CC50 for human Huh7.5 cells to EC50 for Hepatitis C virus infected in human HuH7.5 cells; format: toxicity, cell-based, Huh-7; conditions: read-out: Ratio CC50/EC50
[3] = Cytotoxicity against human Huh7.5 cells after 96 hrs by MTT assay; format: cell-based, Huh-7

With `COc1cc(/C=C/CO[C@@H]2O[C@H](CO)[C@@H](O)[C@H](O)[C@H]2O)cc(OC)c1O` the IC50 [1] was greater than 10 µg/mL.

With `COc1ccc(CO)cc1O[C@@H]1O[C@H](COC(=O)c2cc(O)c(O)c(O)c2)[C@@H](O)[C@H](O)[C@H]1O` the IC50 [1] was greater than 10 µg/mL.

`COc1cc(CO[C@@H]2O[C@H](CO)[C@@H](O)[C@H](O)[C@H]2O)cc(OC)c1O` showed an IC50 [1] greater than 10 µg/mL.

`O=C(O[C@@H]1O[C@@H]2COC(=O)c3cc(O)c(O)c(O)c3-c3c(cc(O)c(O)c3O)C(=O)O[C@@H]([C@@H]2O)[C@H]1OC(=O)c1cc(O)c(O)c(O)c1)c1cc(O)c(O)c(O)c1` gave an IC50 [1] greater than 10 µg/mL.

`O=C(O[C@@H]1O[C@@H]2COC(=O)c3cc(O)c(O)c(O)c3-c3c(cc(O)c(O)c3O)C(=O)O[C@H]([C@H]1O)[C@@H]2OC(=O)c1cc(O)c(O)c(O)c1)c1cc(O)c(O)c(O)c1` gave an IC50 [1] greater than 10 µg/mL.

`O=C(O)C[C@@H]1C(=O)O[C@H]2[C@@H]3OC(=O)c4cc(O)c(O)c(O)c4-c4c(cc(O)c(O)c4O)C(=O)OC[C@H]2O[C@@H](OC(=O)c2cc(O)c(O)c(O)c2)[C@@H]3OC(=O)c2cc(O)c(O)c3c2[C@H]1[C@H](O)C(=O)O3` [CHEBULAGIC ACID] showed an IC50 ([1]; read-out: IC50) of 9.03 µM, an EC50 (Hepatitis C virus) of 22.2 µM and a selectivity ratio [2] of 4.7. The CC50 at 96 h [3] was 105 µM.

Compound `Oc1cc(O)c2c(c1)O[C@H](c1ccc(O)c(O)c1)[C@@H](O)C2` [CIANIDANOL] has an IC50 [1] greater than 10 µg/mL.

Work on `COc1ccc2c(O[C@@H]3C[C@H]4C(=O)N[C@]5(C(=O)O)C[C@H]5/C=C\CCCCC[C@H](NC(=O)OC5CCCC5)C(=O)N4C3)cc(-c3csc(NC(C)C)n3)nc2c1` [CILUPREVIR] yielded an IC50 ([1]; read-out: IC50) of 1.54 µM.

`O=C(O[C@@H]1O[C@@H]2COC(=O)c3cc(O)c(O)c(O)c3-c3c(cc(O)c(O)c3O)C(=O)O[C@H]([C@H]1O)[C@@H]2O)c1cc(O)c(O)c(O)c1` [CORILAGIN] showed an IC50 ([1]; read-out: IC50) of 3.45 µM, an EC50 (Hepatitis C virus) of 13.6 µM and a selectivity ratio [2] of 7.1. It also gave a CC50 at 96 h [3] of 96.7 µM.

In the case of `COc1cc(O[C@@H]2O[C@H](CO[C@@H]3O[C@H](C)[C@@H](O)[C@H](O)[C@@H]3O)[C@@H](O)[C@H](O)[C@H]2O)ccc1O` [CUNEATASIDES D], the IC50 [1] is reported as greater than 10 µg/mL.

`O=c1oc2c(O)c(O[C@@H]3OC[C@@H](O)[C@H](O)[C@H]3O)cc3c(=O)oc4c(O)c(O)cc1c4c23` [ELLAGIC ACID 4-O-XYLOPYRANOSIDE] gave an IC50 [1] greater than 10 µg/mL.

For `OC[C@H]1O[C@@H](Sc2c(O)cc(O)c3c2O[C@H](c2ccc(O)c(O)c2)[C@@H](O)C3)[C@H](O)[C@@H](O)[C@@H]1O` [EXCOECARIPHENOL A], the IC50 [1] was greater than 10 µg/mL.

Work on `OC[C@H]1O[C@@H](Sc2c(O)cc(O)c3c2O[C@H](c2cc(O)c(O)c(O)c2)[C@@H](O)C3)[C@H](O)[C@@H](O)[C@@H]1O` [EXCOECARIPHENOL B] yielded an IC50 [1] greater than 10 µg/mL.

Work on `COC(=O)Cc1c(C(=O)O[C@H]2[C@H](OC(=O)c3cc(O)c(O)c(O)c3)O[C@@H]3COC(=O)c4cc(O)c(O)c(O)c4-c4c(cc(O)c(O)c4O)C(=O)O[C@H]2[C@@H]3O)cc(O)c(O)c1O` [EXCOECARIPHENOL C] yielded an IC50 [1] greater than 10 µg/mL.

For `O=C(O[C@@H]1O[C@@H]2COC(=O)c3cc(O)c(O)c4oc5c(O)c(O)cc(c5c34)C(=O)O[C@@H]3[C@H]1OC(=O)c1cc(O)c(O)c4c1[C@@H]1[C@@]5(C[C@]6(O)OC[C@@H](O)[C@@H]6O[C@@H]5C(O)(O)C(O)(O)[C@]1(O)O4)C(=O)O[C@@H]32)c1cc(O)c(O)c(O)c1` [EXCOECARIPHENOL D], the IC50 ([1]; read-out: IC50) was 6.93 µM, the EC50 (Hepatitis C virus) was 12.6 µM and the selectivity ratio [2] was 4.5. It also gave a CC50 at 96 h [3] of 56.2 µM.

`O=C1O[C@H]2[C@H](O)[C@@H](OC(=O)c3cc(O)c(O)c4c3[C@@H]3C1=CC(=O)C(O)(O)C3(O)O4)[C@H](OC(=O)c1cc(O)c(O)c(O)c1)O[C@@H]2CO` (stereo partly drawn) [FUROSIN] showed an IC50 [1] greater than 10 µg/mL.

`Oc1cc(O)c2c(c1)O[C@H](c1cc(O)c(O)c(O)c1)[C@@H](O)C2` [GALLOCATECHIN] gave an IC50 [1] greater than 10 µg/mL.

With `O=C1O[C@H]2[C@@H]3OC(=O)c4cc(O)c(O)c(O)c4-c4c(cc(O)c(O)c4O)C(=O)OC[C@H]2O[C@@H](OC(=O)c2cc(O)c(O)c(O)c2)[C@@H]3OC(=O)c2cc(O)c(O)c3c2[C@@H]2C1=CC(=O)[C@](O)(O3)C2(O)O` [GERANIIN] the IC50 ([1]; read-out: IC50) was 8.91 µM, the EC50 (Hepatitis C virus) was 33.2 µM and the selectivity ratio [2] was 1.9. It also gave a CC50 at 96 h [3] of 63.4 µM.

`C[C@@H]1O[C@@H](OC[C@H]2O[C@@H](OCc3ccccc3)[C@H](O)[C@@H](O)[C@@H]2O)[C@H](O)[C@H](O)[C@H]1O` [HYDRANGEIFOLIN I] gave an IC50 [1] greater than 10 µg/mL.

`O=c1c(O[C@@H]2O[C@H](CO)[C@@H](O)[C@H](O)[C@H]2O)c(-c2ccc(O)c(O)c2)oc2cc(O)cc(O)c12` [ISOQUERCETIN] gave an IC50 [1] greater than 10 µg/mL.

For `COc1cc(O[C@@H]2O[C@H](CO)[C@@H](O)[C@H](O)[C@H]2O)cc(OC)c1O` [KOABURASIDE], the IC50 [1] was greater than 10 µg/mL.
